Broadly, the inhibition is the relative decrease from the control value, in per cent. Usually EC50 stands for the concentration needed to bring the measured effect to its halfway point. A higher EC50 goes with a need for much substance.

This is an account of results in patent US10414769B2, “5,8-dimethyl-9-phenyl-5,8-dihydro-6H-pyrazolo[3,4-h]quinazolin-2-yl)-(1H-pyrazol-3-yl)-amines as IGF-1R/IR inhibitors” (Boehringer Ingelheim International GmbH, priority 2015, dated 2019).

In one assay the target is T1, AKT2 (PKB beta) (Homo sapiens, UniProt P31751).
T1 construct: purchased Life Technologies PV3975
T1 sequence (P31751 whole entry): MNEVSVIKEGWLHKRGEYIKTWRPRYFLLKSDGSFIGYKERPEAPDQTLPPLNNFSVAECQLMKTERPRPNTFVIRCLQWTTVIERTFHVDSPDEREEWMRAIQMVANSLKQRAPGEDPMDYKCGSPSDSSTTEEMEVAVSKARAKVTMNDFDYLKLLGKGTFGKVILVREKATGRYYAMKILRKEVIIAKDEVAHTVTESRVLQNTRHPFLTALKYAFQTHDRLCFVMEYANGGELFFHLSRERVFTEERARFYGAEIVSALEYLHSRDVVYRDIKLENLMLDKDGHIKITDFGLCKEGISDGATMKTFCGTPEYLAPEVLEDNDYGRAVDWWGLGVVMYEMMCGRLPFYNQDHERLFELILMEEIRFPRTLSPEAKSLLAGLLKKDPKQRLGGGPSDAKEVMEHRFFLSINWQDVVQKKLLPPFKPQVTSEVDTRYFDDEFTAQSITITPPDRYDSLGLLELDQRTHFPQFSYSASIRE
The assay can be described thus: Z'-LYTE kinase selectivity assay AKT2. The class given is biochemical. From the text:
(§1) In order to compare the kinase selectivity of compounds (I) according to the invention with known prior art compounds the commercially provided SelectScreen® Kinase Profiling Service (Z′-LYTE®) was used (Life Technologies GmbH, Darmstadt, Germany) to investigate the ability of the compounds to inhibit a number of different, representatively selected human kinases. Further details regarding this service are available on the Life Technologies website at
(§2) The Z′-LYTE® biochemical assay employs a fluorescence-based, coupled-enzyme format and is based on the differential sensitivity of phosphorylated and non-phosphorylated peptides to proteolytic cleavage. The peptide substrate is labeled with two fluorophores—one at each end—that make up a FRET pair.
(§3) In the primary reaction, the kinase transfers the gamma-phosphate of ATP to a single tyrosine, serine or threonine residue in a synthetic FRET-peptide. In the secondary reaction, a site-specific protease recognizes and cleaves non-phosphorylated FRET-peptides. Phosphorylation of FRET-peptides suppresses cleavage by the Development Reagent. Cleavage disrupts FRET between the donor (i.e., coumarin) and acceptor (i.e., fluorescein) fluorophores on the FRET-peptide, whereas uncleaved, phosphorylated FRET-peptides maintain FRET. A ratiometric method, which calculates the ratio (the Emission Ratio) of donor emission to acceptor emission after excitation of the donor fluorophore at 400 nm, is used to quantitate reaction progress, as shown in the equation below.
(§4) The Test Compounds are screened at 1 μM.
The 2×AKT2 (PKB beta) (# PV3975)/Ser/Thr 06 (Z′-LYTE® Kinase Assay Kit—Ser/Thr 6 Peptide, # PV 3179) mixture is prepared in 50 mM HEPES pH 7.5, 0.01% BRIJ-35, 10 mM MgCl2, 1 mM EGTA. The final 10 μL Kinase Reaction consists of 0.78-40 ng AKT2 (PKB beta) and 2 μM Ser/Thr 06 in 50 mM HEPES pH 7.5, 0.01% BRIJ-35, 10 mM MgCl2, 1 mM EGTA. After the 1 hour Kinase Reaction incubation, 5 μL of a 1:4096 dilution of Development Reagent A is added.

For a further assay, the target named is T2, FRAP1 (mTOR) (Homo sapiens, UniProt P42345).
T2 construct: purchased Life Technologies PR8683B
The assay can be described thus: Z'-LYTE kinase selectivity assay FRAP1 (mTOR). It is filed as biochemical.
Excerpt: as §1, §2, §3, §4
The 2×FRAP1 (mTOR) (# PR8683B)/Ser/Thr 11 (Z′-LYTE® Kinase Assay Kit—Ser/Thr 11 Peptide, # PV 3670) mixture is prepared in 50 mM HEPES pH 7.5, 0.01% BRIJ-35, 10 mM MnCl2, 1 mM EGTA, 2 mM DTT, 0.02% NaN3. The final 10 μL Kinase Reaction consists of 11.1-56 ng FRAP1 (mTOR) and 2 μM Ser/Thr 11 in 50 mM HEPES pH 7.5, 0.01% BRIJ-35, 5 mM MgCl2, 5 mM MnCl2, 1 mM EGTA, 1 mM DTT, 0.01% NaN3. After the 1 hour Kinase Reaction incubation, 5 μL of a 1:16 dilution of Development Reagent B is added.

Assay [1] deals with HCT 116 (colorectal carcinoma) cells. In words: Cell proliferation assay HCT 116 (Alamar Blue). Conditions: Homo sapiens; anti-proliferative effect, HCT 116 cells (negative control line), 72 h. The class given is cell-based. How it is done:
Cell Proliferation Assays
Compounds were tested for their anti-proliferative effects in the TC-71 (EWING'S sarcoma) and HCT 116 (colorectal carcinoma) cancer cell lines in vitro. Published scientific data has described that interference with the IGF-1R signaling pathway reduces the proliferation of TC-71 cells (Manara et al, 2007). Therefore TC-71 cells served as a positive control cell line for monitoring the activity of compounds against IGF-1R-mediated cell proliferation. […] Therefore the HCT 116 cell line served as a negative control.
2000 TC-71 cells or 1000 HCT 116 cells were seeded per well in 180 μL IMDM+10% foetal calf serum (FCS)+penicillin/streptomycin into 96-well microtitre plates. The plates were placed in a cell culture incubator (37° C. in a humidified atmosphere of […]/5% CO2) overnight. The following day, serial dilutions of compounds, prepared in duplicates, were transferred onto the cell layers (controls without compound). The cells were cultivated for a further 72 h in the cell culture incubator. 20 μL of Alamar Blue™ (Serotec Ltd, Dusseldorf, Germany) was added to each well and the plates incubated for 7 h in the cell culture incubator. Fluorescence (extinction wavelength of 544 nm and emission at 590 nm) was then measured and the normalized data fitted by iterative calculation with a sigmoidal curve analysis program (Graph Pad Prism) with a variable Hill slope to determine the EC50 values.

The target of the next assay is T3, CSNK1A1 (CK1 alpha 1) (Homo sapiens, UniProt P48729).
T3 construct: purchased Life Technologies PV 3850
T3 sequence (P48729 whole entry): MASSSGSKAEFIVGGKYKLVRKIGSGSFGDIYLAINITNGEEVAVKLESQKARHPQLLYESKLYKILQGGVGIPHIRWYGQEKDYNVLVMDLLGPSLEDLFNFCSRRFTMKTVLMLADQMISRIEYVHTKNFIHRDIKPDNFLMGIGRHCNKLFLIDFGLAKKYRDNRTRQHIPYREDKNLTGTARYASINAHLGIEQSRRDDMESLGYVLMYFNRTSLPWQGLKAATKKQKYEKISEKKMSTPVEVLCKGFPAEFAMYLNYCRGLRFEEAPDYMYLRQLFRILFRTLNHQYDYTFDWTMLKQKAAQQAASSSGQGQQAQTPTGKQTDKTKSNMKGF
The assay can be described thus: Z'-LYTE kinase selectivity assay CSNK1A1. The class given is biochemical.
Excerpt: as §1, §2, §3, §4
The 2×CSNK1A1 (CK1 alpha 1) (# PV 3850)/Ser/Thr 11 (Z′-LYTE® Kinase Assay Kit—Ser/Thr 11 Peptide, # PV 3670) mixture is prepared in 50 mM HEPES pH 7.5, 0.01% BRIJ-35, 10 mM MgCl2, 1 mM EGTA, 2 mM DTT. The final 10 μL Kinase Reaction consists of 2.6-13.5 ng CSNK1A1 (CK1 alpha 1) and 2 μM Ser/Thr 11 in 50 mM HEPES pH 7.5, 0.01% BRIJ-35, 10 mM MgCl2, 1 mM EGTA, 1 mM DTT. After the 1 hour Kinase Reaction incubation, 5 μL of a 1:16 dilution of Development Reagent B is added.

In a further assay the target is T4, SRPK2 (Homo sapiens, UniProt P78362).
T4 construct: purchased Life Technologies PV 3829
T4 sequence (P78362 whole entry): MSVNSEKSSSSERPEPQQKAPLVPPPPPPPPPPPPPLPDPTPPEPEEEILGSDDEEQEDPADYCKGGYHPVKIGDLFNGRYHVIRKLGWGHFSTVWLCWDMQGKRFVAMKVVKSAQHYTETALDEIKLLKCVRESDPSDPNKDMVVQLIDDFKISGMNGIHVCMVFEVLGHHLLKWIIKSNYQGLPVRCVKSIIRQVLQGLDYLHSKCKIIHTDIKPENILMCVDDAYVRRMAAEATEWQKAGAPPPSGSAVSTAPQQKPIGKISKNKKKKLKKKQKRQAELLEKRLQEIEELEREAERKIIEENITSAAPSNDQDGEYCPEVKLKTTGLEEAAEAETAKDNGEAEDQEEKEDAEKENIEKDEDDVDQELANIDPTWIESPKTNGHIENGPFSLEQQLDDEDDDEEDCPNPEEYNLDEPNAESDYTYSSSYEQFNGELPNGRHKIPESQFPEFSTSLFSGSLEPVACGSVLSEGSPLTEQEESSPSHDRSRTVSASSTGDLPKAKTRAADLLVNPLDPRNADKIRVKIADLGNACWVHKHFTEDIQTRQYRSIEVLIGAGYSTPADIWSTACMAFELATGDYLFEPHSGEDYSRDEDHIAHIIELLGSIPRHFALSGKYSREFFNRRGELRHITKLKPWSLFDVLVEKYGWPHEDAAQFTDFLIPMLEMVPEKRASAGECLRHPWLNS
In words: Z'-LYTE kinase selectivity assay SRPK2. The class given is biochemical.
Excerpt: as §1, §2, §3, §4
The 2×SRPK2 (# PV 3829)/Ser/Thr 07 (Z′-LYTE® Kinase Assay Kit—Ser/Thr 7 Peptide, # PV 3180) mixture is prepared in 50 mM HEPES pH 7.5, 0.01% BRIJ-35, 10 mM MgCl2, 1 mM EGTA. The final 10 μL Kinase Reaction consists of 3.76-52 ng SRPK2 and 2 μM Ser/Thr 07 in 50 mM HEPES pH 7.5, 0.01% BRIJ-35, 10 mM MgCl2, 1 mM EGTA. After the 1 hour Kinase Reaction incubation, 5 μL of a 1:65000 dilution of Development Reagent A is added.

Take `CC(O)CN1CCN(CCn2ccc(Nc3ncc4c(n3)-c3c(nn(C)c3-c3ccccc3)C[C@H]4C)n2)CC1` (some centres unmarked) [Compound I-7]: the inhibition at 1 µM on AKT2 (PKB beta) is 7%; on FRAP1 (mTOR), 3%; against CSNK1A1 (CK1 alpha 1) it was 29%; against SRPK2, 58%. For the same molecule, in assay [1], the midpoint of the response, the EC50, lay at 1.83 µM.
As to `C[C@@H]1Cc2nn(C)c(-c3ccccc3)c2-c2nc(Nc3ccn(CCN4CCN(C)CC4)n3)ncc21` [Compound I-1], the inhibition at 1 µM on AKT2 (PKB beta) is 3%; at FRAP1 (mTOR) it was -6%; at CSNK1A1 (CK1 alpha 1), 16%; against SRPK2, 58%. The same molecule registered an EC50 in assay [1] greater than 2.5 µM.
The like results for `C[C@@H]1Cc2nn(C)c(-c3ccccc3)c2-c2nc(Nc3ccn(CCN4CCN(CC(C)(C)O)CC4)n3)ncc21` [Compound I-3] were, in that order, 7%, -10%, 37%, 49% and 2 µM.
The matching figures for `C[C@@H]1Cc2nn(C)c(-c3ccccc3)c2-c2nc(Nc3ccn(CCN4CCN(CC(=O)OC5CCOCC5)CC4)n3)ncc21` [Compound I-8]: 4%, -8%, 38%, 48% and greater than 2.5 µM.
In the case of `COCCN1CCN(CCn2ccc(Nc3ncc4c(n3)-c3c(nn(C)c3-c3ccccc3)C[C@H]4C)n2)CC1` [Compound I-11], the inhibition at 1 µM was 3% on AKT2 (PKB beta), -11% on FRAP1 (mTOR), 17% against CSNK1A1 (CK1 alpha 1) and 38% against SRPK2. Moreover, the EC50 in assay [1] was greater than 2.5 µM.
The matching figures for `C[C@@H]1Cc2nn(C)c(-c3ccccc3)c2-c2nc(Nc3ccn(CCN4CCOCC4)n3)ncc21` [Compound I-2]: 1%, 1%, 49%, 79% and greater than 2.5 µM.
For `C[C@@H]1Cc2nn(C)c(-c3ccccc3)c2-c2nc(Nc3ccn(CCN4CCN(CC5CCCO5)CC4)n3)ncc21` (some centres unmarked) [Compound I-9], the inhibition at 1 µM on AKT2 (PKB beta) is 2%; against FRAP1 (mTOR), -12%; against CSNK1A1 (CK1 alpha 1), 37%; on SRPK2, 49%. The molecule further had an EC50 in assay [1] greater than 2.5 µM.
